Like-named read-outs stand apart in the source and are kept apart here.
Test system: RSV A2
Assay: RSV antiviral cytopathic effect (CPE) assay
Assay type: cell-based
Settings: human respiratory syncytial virus, HEp-2, 120 h, HEp2 cells infected with RSV A2 (moi ~0.01), 5 days, MTT readout
Description: Compounds of the invention were tested for their antiviral activity against respiratory syncytial virus. Cytopathic effect (CPE) assays were performed essentially as described in the literature (see for example Watanabe et al, 1994, J. Virological Methods, 48:257). Serial dilutions of the test compounds were made in 96 well plates. HEp2 cells (1.0×10^4 cells/well) were infected with RSV at a low multiplicity of infection (e.g. RSV A2 at an moi of ˜0.01) and added to plates to assess antiviral activity. Uninfected HEp2 cells were used to assess compound cytotoxicity. Assays were incubated for 5 days at 37° C. in a 5% CO2 atmosphere. The extent of CPE was determined via metabolism of the vital dye 3-(4,5-dimethylthiaxol-2-yl)-2,5-diphenyltetrazolium bromide (MTT). MTT (1 mg/ml) was added to each well and plates incubated for 2 hours incubation at 37° C. Wells were aspirated, iso-propanol (200 μL) was added and absorbance values read at 540/650 nm. Compound concentrations that inhibited CPE by 50% (EC50) and developed cytotoxicity (CC50) were calculated using non-linear regression analysis.
Representative mean EC50 values obtained are also provided. In the inventors' experience, replicate EC50 values usually fall within three standard deviations of the mean.

[1] = read-out: Activity Range (RSV A2 EC50)
[2] = mean EC50, read-out: RSV A2 EC50

Compound	EC50 [1] [nM]	EC50 [2] [nM]
O=C(NCCc1ccccc1)N1CCN2C(=O)c3cccn3CC12c1ccc(Cl)cc1 (stereo not drawn) [Compound 48]	500 to 10000	1300
Cc1nocc1C(=O)N1CCN2C(=O)c3cccn3CC12C1CCOCC1 (stereo not drawn) [Compound 50, 1-[(3-methyl-1,2-oxazol-4-yl)carbonyl]-10a-(tetrahydro-2H-pyran-4-yl)-2,3,10,10a-tetrahydro-1H,5H-imidazo[1,2-a]pyrrolo[1,2-d]pyrazin-5-onel]	500 to 10000	1420
COc1ccc(C23Cn4cccc4C(=O)N2CCN3C(=O)c2cnoc2)cc1 (stereo not drawn) [Compound 51]	500 to 10000	700
COc1ccc(C23Cn4cccc4C(=O)N2CCN3C(=O)c2conc2C(F)(F)F)cc1 (stereo not drawn) [Compound 52]	< 49	24
COc1ccc(C23Cn4cccc4C(=O)N2CCN3C(=O)c2c(C)noc2C)cc1 (stereo not drawn) [Compound 53]	100 to 499	260
COc1ccc(C23Cn4cccc4C(=O)N2CCN3C(=O)c2ccoc2)cc1 (stereo not drawn) [Compound 54]	500 to 10000	600
COc1ccc(C23Cn4cccc4C(=O)N2CCN3C(=O)c2ocnc2C)cc1 (stereo not drawn) [Compound 55]	500 to 10000	2500
COc1ccc(C23Cn4cccc4C(=O)N2CCN3C(=O)c2snnc2C)cc1 (stereo not drawn) [Compound 56]	100 to 499	370
Cc1nocc1C(=O)N1CCN2C(=O)c3cccn3CC12c1ccc2c(c1)CCO2 (stereo not drawn) [Compound 57]	< 49	14
COc1ccc(C23Cn4cccc4C(=O)N2CCN3C(=O)c2conc2C)cn1 (stereo not drawn) [Compound 58]	< 49	49
COc1ccc(C23Cn4cccc4C(=O)N2CCN3C(=O)c2ncoc2C2CC2)cc1 (stereo not drawn) [Compound 59]	100 to 499	180
COc1ccc(C23Cn4cccc4C(=O)N2CCN3C(=O)c2cccn2C)cc1 (stereo not drawn) [Compound 60]	500 to 10000	4700
COc1ccc(C23Cn4cccc4C(=O)N2CCN3C(=O)c2ccnn2C)cc1 (stereo not drawn) [Compound 61]	500 to 10000	980
COc1ccc(C23Cn4cc(F)cc4C(=O)N2CCN3C(=O)c2conc2C(F)(F)F)cc1 (stereo not drawn) [Compound 66]	< 49	15
CCc1nocc1C(=O)N1CCN2C(=O)c3cccn3CC12c1ccc(OC)cc1 (stereo not drawn) [Compound 67]	< 49	17
COc1ccc(C23Cn4cccc4C(=O)N2CCN3C(=O)c2conc2C(C)C)cc1 (stereo not drawn) [Compound 68]	50 to 99	53
COc1ccc(C23Cn4cccc4C(=O)N2CCN3C(=O)c2cccnc2)cc1 (stereo not drawn) [Compound 71]	> 10000	11000
Cc1nocc1C(=O)N1CCN2C(=O)c3cccn3CC12c1ccsc1 (stereo not drawn) [Compound 73]	100 to 499	250
Cc1nocc1C(=O)N1CCN2C(=O)c3cccn3CC12c1cccs1 (stereo not drawn) [Compound 74]	100 to 499	220
COc1ccc(C23Cn4cc(-c5nnn[nH]5)cc4C(=O)N2CCN3C(=O)c2conc2C)cc1 (stereo not drawn) [Compound 75, 10a-(4-methoxyphenyl)-1-[(3-methyl-1,2-oxazol-4-yl)carbonyl]-7-(1H-tetrazol-5-yl)-2,3,10,10a-tetrahydro-1H,5H-imidazo[1,2-a]pyrrolo[1,2-d]pyrazin-5-one]	> 10000	–
Cc1nocc1C(=O)N1CCN2C(=O)c3cccn3CC12c1ccc[n+]([O-])c1 (stereo not drawn) [Compound 78, 1-[(3-methyl-1,2-oxazol-4-yl)carbonyl]-10a-(1-oxidopyridin-3-yl)-2,3,10,10a-tetrahydro-1H,5H-imidazo[1,2-a]pyrrolo[1,2-d]pyrazin-5-one]	500 to 10000	5800
Cc1nocc1C(=O)N1CCN2C(=O)c3ccc(Cl)n3CC12C1CCOCC1 (stereo not drawn) [Compound 81, 8-chloro-1-[(3-methyl-1,2-oxazol-4-yl)carbonyl]-10a-(tetrahydro-2H-pyran-4-yl)-2,3,10,10a-tetrahydro-1H,5H-imidazo[1,2-a]pyrrolo[1,2-d]pyrazin-5-one]	50 to 99	67
O=C1c2cc(Br)cn2CC2(c3ccc(F)cc3)NCCN12 (stereo not drawn) [Compound 85]	> 10000	–
Cc1ccc(C23Cn4cc(Br)cc4C(=O)N2CCN3)cc1 (stereo not drawn) [Compound 86]	> 10000	–
COc1ccc(C23Cn4cc(-c5cnn(C(C)C)c5)cc4C(=O)N2CCN3C(=O)c2conc2C)cc1 (stereo not drawn) [Compound 88]	50 to 99	65

The remaining lines, values ahead:

EC50 [1] [nM]	EC50 [2] [nM]	Compound
< 49	7.9	O=C(c1conc1C(F)(F)F)N1CCN2C(=O)c3cccn3CC12c1ccc(Cl)cc1 (stereo not drawn) [Compound 49]
< 49	48	Cc1nocc1C(=O)OCc1ccc(C23Cn4cccc4C(=O)N2CCN3C(=O)c2conc2C)cc1 (stereo not drawn) [Compound 62, 4-{1-[(3-methyl-1,2-oxazol-4-yl)carbonyl]-5-oxo-2,3-dihydro-1H,5H-imidazo[1,2-a]pyrrolo[1,2-d]pyrazin-10a(10H)-yl}benzyl 3-methyl-1,2-oxazole-4-carboxylate]
< 49	21	Cc1nocc1C(=O)N1CCN2C(=O)c3cc(-c4ccccn4)nn3CC12c1ccc(Cl)cc1 (stereo not drawn) [Compound 63, 10a-(4-chlorophenyl)-1-[(3-methyl-1,2-oxazol-4-yl)carbonyl]-7-(pyridin-2-yl)-2,3,10,10a-tetrahydro-1H,5H-imidazo[1,2-a]pyrazolo[1,5-d]pyrazin-5-one]
500 to 10000	8600	Cc1nocc1C(=O)N1CCN2C(=O)c3cc(-c4ccccc4)nn3CC12c1ccc(Cl)cc1 (stereo not drawn) [Compound 64]
50 to 99	66	COc1ccc(C23Cn4cc(F)cc4C(=O)N2CCN3C(=O)c2conc2C)cc1 (stereo not drawn) [Compound 65]
100 to 499	160	Cc1nocc1C(=O)N1CCN2C(=O)c3cccn3CC12c1ccc(O)cc1 (stereo not drawn) [Compound 69]
< 49	3.6	Cc1nocc1C(=O)N1CCN2C(=O)c3cc(-c4ccco4)nn3CC12c1ccc(Cl)cc1 (stereo not drawn) [Compound 70]
< 49	48	Cc1nocc1C(=O)N1CCN2C(=O)c3ccnn3CC12c1ccc(Cl)cc1 (stereo not drawn) [Compound 72]
50 to 99	67	COCc1ccc(C23Cn4cccc4C(=O)N2CCN3C(=O)c2conc2C)cc1 (stereo not drawn) [Compound 76]
500 to 10000	7300	Cc1ccc([C@@]23Cn4cccc4C(=O)N2CCN3C(=O)c2conc2C)cn1 [Compound 77A, (10aS)-1-[(3-methyl-1,2-oxazol-4-yl)carbonyl]-10a-(6-methylpyridin-3-yl)-2,3,10,10a-tetrahydro-1H,5H-imidazo[1,2-a]pyrrolo[1,2-d]pyrazin-5-one]
< 49	19	Cc1ccc([C@]23Cn4cccc4C(=O)N2CCN3C(=O)c2conc2C)cn1 [Compound 77B, (10aR)-1-[(3-methyl-1,2-oxazol-4-yl)carbonyl]-10a-(6-methylpyridin-3-yl)-2,3,10,10a-tetrahydro-1H,5H-imidazo[1,2-a]pyrrolo[1,2-d]pyrazin-5-one]
50 to 99	56	Cc1ccc(C23Cn4cccc4C(=O)N2CCN3C(=O)c2conc2C)cn1 (stereo not drawn) [Compound 77]
< 49	3.1	Cc1nocc1C(=O)N1CCN2C(=O)c3ccc(Cl)n3CC12c1ccc(F)cc1 (stereo not drawn) [Compound 80]
< 49	48	COc1ccc(C23Cn4cc(-c5cnn(C)c5)cc4C(=O)N2CCN3C(=O)c2conc2C)cc1 (stereo not drawn) [Compound 82]
50 to 99	120	COc1ccc(C23Cn4cc(-c5cccnc5)cc4C(=O)N2CCN3C(=O)c2conc2C)cc1 (stereo not drawn) [Compound 83]
< 49	18	COc1ccc(C23Cn4cc(-c5ccncc5)cc4C(=O)N2CCN3C(=O)c2conc2C)cc1 (stereo not drawn) [Compound 84]
50 to 99	500	COc1ccc(C23Cn4cc(-c5ccnn5C)cc4C(=O)N2CCN3C(=O)c2conc2C)cc1 (stereo not drawn) [Compound 87]
500 to 10000	1600	COc1ccc(C23Cn4cc(C#N)cc4C(=O)N2CCN3C(=O)c2conc2C)cc1 (stereo not drawn) [Compound 89, 10a-(4-methoxyphenyl)-1-[(3-methyl-1,2-oxazol-4-yl)carbonyl]-5-oxo-2,3,10,10a-tetrahydro-1H,5H-imidazo[1,2-a]pyrrolo[1,2-d]pyrazine-7-carbonitrile]
500 to 10000	1300	COc1ccc(C23Cn4cc(-c5cncnc5)cc4C(=O)N2CCN3C(=O)c2conc2C)cc1 (stereo not drawn) [Compound 90]
100 to 499	140	COc1ccc(C23Cn4cc(-c5cn(C)nc5C)cc4C(=O)N2CCN3C(=O)c2conc2C)cc1 (stereo not drawn) [Compound 91]
> 10000	–	COc1ccc(C23Cn4cc(-c5cnccc5C)cc4C(=O)N2CCN3C(=O)c2conc2C)cc1 (stereo not drawn) [Compound 92]
< 49	8.2	Cc1ccc(C23Cn4cc(-c5ccccn5)cc4C(=O)N2CCN3C(=O)c2conc2C)cc1 (stereo not drawn) [Compound 93, 1-[(3-methyl-1,2-oxazol-4-yl)carbonyl]-10a-(4-methylphenyl)-7-(pyridin-2-yl)-2,3,10,10a-tetrahydro-1H,5H-imidazo[1,2-a]pyrrolo[1,2-d]pyrazin-5-one]
